Literature values as cited in US10590413B2, “Chiral control” (WAVE LIFE SCIENCES LTD., priority 2012, dated 2020).
Read-outs that look alike come from different tables or passages of the source. [Rp] = phosphorothioate linkage, Rp; [5mC] = 5-methylcytosine

Key:
Mouse B Cells = conditions: mean and std. dev. of at least 3 experiments, compared to wells with no added ODN, cited from earlier work
[1] = test system: Murine IL-6 production and B cell activation; conditions: cited from earlier work; for IL-6 (pg/ml) CH12.LX: CH12.LX cells; for SI (stimulation index, [3H] uridine uptake, fold increase from unstimulated control): cells stimulated with 20 μM CpG O-ODN; for SI (stimulation index, [3H] uridine uptake, fold increase from unstimulated control) / SI (stimulation index, [3H] uridine uptake): mean ± SD of triplicates; for SI (stimulation index, [3H] uridine uptake): fold increase from unstimulated control, 20 μM CpG O-ODN; for IgM: measured by ELISA, unstimulated culture 547 ± 82 ng/ml; for IL-6 (pg/ml) SPLENIC B CELL: splenic B cells
human PBMC = conditions: cited from earlier work
[2] = unstimulated control ≤10 pg/ml, US 6,239,116 Table 2
[3] = ODN 12 μg/ml, 4 hr, 10% autologous serum, level above wells with no ODN, ELISA
[4] = ODN 12 μg/ml, 24 hr, 10% autologous serum, level above wells with no ODN, ELISA

## 1b (DNA GCTAGACGTTAGCGT; Z modified cytosine, further chemistry not given here) [Oligonucleotide 1b]
Mouse B Cells; US 6,239,116 Table 1
  Stimulation Index, 3H Uridine: 1.2 ± 0.1
  Stimulation Index, IgM Production: 1.8 ± 0.0
Mouse B Cells
  Stimulation Index, 3H Uridine: 1.2 ± 0.1

## 1c (DNA GCTAGACGTTAGCGT; chemistry not fully specified) [Oligonucleotide 1c]
Mouse B Cells; US 6,239,116 Table 1
  Stimulation Index, 3H Uridine: 10.3 ± 4.4
  Stimulation Index, IgM Production: 9.5 ± 1.8
Mouse B Cells
  Stimulation Index, 3H Uridine: 10.3 ± 4.4

## 1d (DNA GCATGACGTTGAGCT; DNA, backbone not given here; further chemistry not fully specified) [Oligonucleotide 1d]
Mouse B Cells; US 6,239,116 Table 1
  Stimulation Index, 3H Uridine: 13.0 ± 2.3
  Stimulation Index, IgM Production: 18.3 ± 7.5
Mouse B Cells
  Stimulation Index, 3H Uridine: 13.0 ± 2.3

## 2c (DNA ATCGACTCTCGAGCGTTCTC; chemistry not fully specified) [Oligonucleotide 2c]
Mouse B Cells; US 6,239,116 Table 1
  Stimulation Index, 3H Uridine: 3.1 ± 0.6
  Stimulation Index, IgM Production: 7.3 ± 1.4
Mouse B Cells
  Stimulation Index, 3H Uridine: 3.1 ± 0.6

## 2d (DNA ATCGACTCTCGAGCGTTCTC; DNA, [5mC] at 18, backbone not given here) [Oligonucleotide 2d]
Mouse B Cells; US 6,239,116 Table 1
  Stimulation Index, 3H Uridine: 7.4 ± 1.4
  Stimulation Index, IgM Production: 27.7 ± 5.4
Mouse B Cells
  Stimulation Index, 3H Uridine: 7.4 ± 1.4

## 3D (DNA GAGAACGCTGGACCTTCCAT; chemistry not fully specified) [Oligonucleotide 3D]
Mouse B Cells; US 6,239,116 Table 1
  Stimulation Index, 3H Uridine: 4.9 ± 0.5
  Stimulation Index, IgM Production: 19.9 ± 3.6
Mouse B Cells
  Stimulation Index, 3H Uridine: 4.9 ± 0.5

## 3Db (DNA GAGAACGCTCGACCTTCGAT; chemistry not fully specified) [Oligonucleotide 3Db]
Mouse B Cells; US 6,239,116 Table 1
  Stimulation Index, 3H Uridine: 10.1 ± 2.8
  Stimulation Index, IgM Production: 25.4 ± 0.8
Mouse B Cells
  Stimulation Index, 3H Uridine: 10.1 ± 2.8

## 3Dc (DNA GAGCAAGCTGGACCTTCCAT; chemistry not fully specified) [Oligonucleotide 3Dc]
Mouse B Cells; US 6,239,116 Table 1
  Stimulation Index, 3H Uridine: 1.0 ± 0.1
  Stimulation Index, IgM Production: 1.2 ± 0.5
Mouse B Cells
  Stimulation Index, 3H Uridine: 1.0 ± 0.1

## 3Df (DNA GAGAACGATGGACCTTCCAT; chemistry not fully specified) [Oligonucleotide 3Df]
Mouse B Cells; US 6,239,116 Table 1
  Stimulation Index, 3H Uridine: 1.6 ± 0.1
  Stimulation Index, IgM Production: 7.7 ± 0.4
Mouse B Cells
  Stimulation Index, 3H Uridine: 1.6 ± 0.1

## 3Dg (DNA GAGAACGCTCCAGCACTGAT; chemistry not fully specified) [Oligonucleotide 3Dg]
Mouse B Cells; US 6,239,116 Table 1
  Stimulation Index, 3H Uridine: 6.1 ± 1.5
  Stimulation Index, IgM Production: 18.6 ± 1.5
Mouse B Cells
  Stimulation Index, 3H Uridine: 6.1 ± 1.5

## 3Ma (DNA TCCATGCTGGTCCTGATGCT; chemistry not fully specified) [Oligonucleotide 3Ma]
Mouse B Cells; US 6,239,116 Table 1
  Stimulation Index, 3H Uridine: 0.9 ± 0.1
  Stimulation Index, IgM Production: 1.8 ± 0.5
Mouse B Cells
  Stimulation Index, 3H Uridine: 0.9 ± 0.1

## 3Mc (DNA TCCATGTCGGTCCTGATGCT; Z modified cytosine, further chemistry not given here) [Oligonucleotide 3Mc]
Mouse B Cells; US 6,239,116 Table 1
  Stimulation Index, 3H Uridine: 5.4 ± 1.5
  Stimulation Index, IgM Production: 8.5 ± 2.6
Mouse B Cells
  Stimulation Index, 3H Uridine: 5.4 ± 1.5

## 3Md (DNA TCCATGACGTTCCTGATGCT; chemistry not given here) [Oligonucleotide 3Md]
Mouse B Cells; US 6,239,116 Table 1
  Stimulation Index, 3H Uridine: 17.2 ± 9.4
Mouse B Cells
  Stimulation Index, 3H Uridine: 17.2 ± 9.4

## 3Me (DNA TCCATGTCGGTCCTGCTGAT; chemistry not given here) [Oligonucleotide 3Me]
Mouse B Cells; US 6,239,116 Table 1
  Stimulation Index, 3H Uridine: 3.6 ± 0.2
  Stimulation Index, IgM Production: 14.2 ± 5.2
Mouse B Cells
  Stimulation Index, 3H Uridine: 3.6 ± 0.2

## 4b (DNA TCAGCGCT; chemistry not fully specified) [Oligonucleotide 4b]
Mouse B Cells; US 6,239,116 Table 1
  Stimulation Index, 3H Uridine: 4.5 ± 0.2
  Stimulation Index, IgM Production: 9.6 ± 3.4
Mouse B Cells
  Stimulation Index, 3H Uridine: 4.5 ± 0.2

## 4c (DNA TCATCGAT; chemistry not given here) [Oligonucleotide 4c]
Mouse B Cells; US 6,239,116 Table 1
  Stimulation Index, 3H Uridine: 2.7 ± 1.0
Mouse B Cells
  Stimulation Index, 3H Uridine: 2.7 ± 1.0

## 4d (DNA TCTTCGAA; chemistry not fully specified) [Oligonucleotide 4d]
Mouse B Cells; US 6,239,116 Table 1
  Stimulation Index, 3H Uridine: 1.3 ± 0.2
Mouse B Cells
  Stimulation Index, 3H Uridine: 1.3 ± 0.2

## 4e (DNA CAACGTT; chemistry not fully specified) [Oligonucleotide 4e]
Mouse B Cells; US 6,239,116 Table 1
  Stimulation Index, 3H Uridine: 1.3 ± 0.2
  Stimulation Index, IgM Production: 1.1 ± 0.5
Mouse B Cells
  Stimulation Index, 3H Uridine: 1.3 ± 0.2

## 4f (DNA CCAACGTT; chemistry not fully specified) [Oligonucleotide 4f]
Mouse B Cells; US 6,239,116 Table 1
  Stimulation Index, 3H Uridine: 3.9 ± 1.4
Mouse B Cells
  Stimulation Index, 3H Uridine: 3.9 ± 1.4

## 4g (DNA AACGTTCT; chemistry not given here) [Oligonucleotide 4g]
Mouse B Cells; US 6,239,116 Table 1
  Stimulation Index, 3H Uridine: 1.4 ± 0.3
Mouse B Cells
  Stimulation Index, 3H Uridine: 1.4 ± 0.3

## 4h (DNA TCAACGTC; chemistry not fully specified) [Oligonucleotide 4h]
Mouse B Cells; US 6,239,116 Table 1
  Stimulation Index, 3H Uridine: 1.2 ± 0.2
Mouse B Cells
  Stimulation Index, 3H Uridine: 1.2 ± 0.2

## 1614 (DNA TCCATGACGGTCCTGATGCT; chemistry not given here) [Oligonucleotide 1614]
[1]
  IL-6 (pg/ml) CH12.LX: 1533 ± 321 pg/mL
  SI (stimulation index, [3H] uridine uptake, fold increase from unstimulated control): 10.8 ± 0.6
  SI (stimulation index, [3H] uridine uptake): 10.8 ± 0.6
  IgM: 7558 ± 414 ng/mL
  IL-6 (pg/ml) SPLENIC B CELL: 1812 ± 103 pg/mL
[1]; [2]
  IL-6 (pg/ml) CH12.LX: 1533 ± 321 pg/mL
  IL-6 (pg/ml) SPLENIC B CELL: 1812 ± 103 pg/mL
Human PBMC; [3]
  TNF-α: 31 pg/mL
Human PBMC; [4]
  GM-CSF: 50 pg/mL
  IFN-γ: 0 pg/mL
  IL-6: 550 pg/mL
  IL-12: 31 pg/mL

## 1615 (DNA TCCATGGCGGTCCTGATGCT; chemistry not given here) [Oligonucleotide 1615]
[1]
  IL-6 (pg/ml) CH12.LX: 1201 ± 155 pg/mL
  SI (stimulation index, [3H] uridine uptake, fold increase from unstimulated control): 3.7 ± 0.3
  SI (stimulation index, [3H] uridine uptake): 3.7 ± 0.3
  IgM: 3212 ± 617 ng/mL
  IL-6 (pg/ml) SPLENIC B CELL: 850 ± 202 pg/mL
[1]; [2]
  IL-6 (pg/ml) CH12.LX: 1201 ± 155 pg/mL
  IL-6 (pg/ml) SPLENIC B CELL: 850 ± 202 pg/mL
Human PBMC; [3]
  TNF-α: 145 pg/mL
Human PBMC; [4]
  GM-CSF: 45 pg/mL
  IFN-γ: 7.8 pg/mL
  IL-6: 600 pg/mL
  IL-12: 145 pg/mL
Human PBMC
  GM-CSF: 45
  IFN-γ: 7.8
  IL-6: 600
  IL-12: 250
  TNF-α: 145

## 1618 (DNA TCCATGACGTTCCTGATGCT; chemistry not given here) [Oligonucleotide 1618]
[1]
  IL-6 (pg/ml) CH12.LX: 2109 ± 291 pg/mL
  SI (stimulation index, [3H] uridine uptake, fold increase from unstimulated control): 12.9 ± 0.7
  SI (stimulation index, [3H] uridine uptake): 12.9 ± 0.7
  IgM: 10425 ± 674 ng/mL
  IL-6 (pg/ml) SPLENIC B CELL: 2596 ± 166 pg/mL
[1]; [2]
  IL-6 (pg/ml) CH12.LX: 2109 ± 291 pg/mL
  IL-6 (pg/ml) SPLENIC B CELL: 2596 ± 166 pg/mL
Human PBMC; [3]
  TNF-α: 60 pg/mL
Human PBMC; [4]
  GM-CSF: 15.6 pg/mL
  IFN-γ: 15.6 pg/mL
  IL-6: 300 pg/mL
  IL-12: 62 pg/mL
Human PBMC
  GM-CSF: 15.6
  IFN-γ: 15.6
  IL-6: 300
  IL-12: 62
  TNF-α: 60

## 1634 (DNA TCCATGTCGCTCCTGATGCT; chemistry not given here) [Oligonucleotide 1634]
[1]
  IL-6 (pg/ml) CH12.LX: 1049 ± 223 pg/mL
  SI (stimulation index, [3H] uridine uptake, fold increase from unstimulated control): 9.2 ± 0.9
  SI (stimulation index, [3H] uridine uptake): 9.2 ± 0.9
  IgM: 6256 ± 261 ng/mL
  IL-6 (pg/ml) SPLENIC B CELL: 1671 ± 175 pg/mL
[1]; [2]
  IL-6 (pg/ml) CH12.LX: 1049 ± 223 pg/mL
  IL-6 (pg/ml) SPLENIC B CELL: 1671 ± 175 pg/mL
Human PBMC; [3]
  TNF-α: 400 pg/mL
Human PBMC; [4]
  GM-CSF: 85 pg/mL
  IFN-γ: 40 pg/mL
  IL-6: 300 pg/mL
  IL-12: 400 pg/mL
Human PBMC
  GM-CSF: 85
  IFN-γ: 40
  IL-6: 300
  IL-12: 200
  TNF-α: 400

## 1636 (DNA TCCATGTCGATCCTGATGCT; chemistry not given here) [Oligonucleotide 1636]
[1]
  IL-6 (pg/ml) CH12.LX: 1181 ± 76 pg/mL
  SI (stimulation index, [3H] uridine uptake, fold increase from unstimulated control): 5.4 ± 0.4
  SI (stimulation index, [3H] uridine uptake): 5.4 ± 0.4
  IgM: 3983 ± 485 ng/mL
  IL-6 (pg/ml) SPLENIC B CELL: 947 ± 132 pg/mL
[1]; [2]
  IL-6 (pg/ml) CH12.LX: 1181 ± 76 pg/mL
  IL-6 (pg/ml) SPLENIC B CELL: 947 ± 132 pg/mL
Human PBMC; [3]
  TNF-α: 250 pg/mL
Human PBMC; [4]
  GM-CSF: 40 pg/mL
  IFN-γ: 35 pg/mL
  IL-6: 325 pg/mL
  IL-12: 250 pg/mL
Human PBMC
  GM-CSF: 40
  IFN-γ: 35
  IL-6: 325
  IL-12: 0
  TNF-α: 250

## All-(Rp)-d[GsCsCsTsCsAsGsTsCsTsGsCsTsTsCsGsCsAsCsC] (DNA GCCTCAGTCTGCTTCGCACC; DNA, all [Rp], methylation of C not given here) [Oligonucleotide 101]
Mouse B Cells; US 6,239,116 Table 1
  Stimulation Index, 3H Uridine: 2.9 ± 0.2
  Stimulation Index, IgM Production: 13.6 ± 2.0
Mouse B Cells
  Stimulation Index, 3H Uridine: 2.9 ± 0.2
